Experiments:
HiBit-BRM fusion protein = biological target: T1, HiBit-BRM fusion protein (Homo sapiens, UniProt P51531); experiment: HiBiT-BRM cell-based degradation assay (Nano-Glo HiBiT Lytic Detection, 24 h); settings: HeLa cells expressing HiBiT-BRM; for DC50: read-out: BRM HiBit Degradation IC50; for BRM HiBit Degradation Maximum measured: top dose 30 μM
T1 construct: expressed in transfected cells
Procedure, shortened: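 Luminescence from reconstituted NanoBiT luciferase in lysed HeLa HiBiT-BRM cells served as the measure of remaining BRM after 24 h treatment. Compounds were tested from 30 μM final downward in 3-fold steps. DMSO and 2 μM of a standard BRM/BRG1 degrader defined the scale limits.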

[1] = biological target: T2, HiBit-BRG1 fusion protein (Homo sapiens, UniProt P51532); experiment: HiBiT-BRG1 cell-based degradation assay (Nano-Glo HiBiT Lytic Detection, 24 h); settings: HeLa cells expressing HiBit-BRG1 and LgBit; for DC50: read-out: BRG1 HiBit Degradation IC50; for Dmax: HeLa, top dose 30 μM, read-out: BRG1 HiBit Degradation Maximum measured
T2 construct: expressed in transfected cells
Procedure, shortened: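 Stable HeLa line expressing HiBiT-BRG1 and LgBiT, seeded at 5000 cells/well; luminescence read after lytic Nano-Glo HiBiT reagent and 10 min shaking at RT. % degradation normalised between DMSO (high control) and 2 μM reference BRM/BRG1 degrader (low control).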

T1 sequence (P51531 whole entry, the tested form may be a part): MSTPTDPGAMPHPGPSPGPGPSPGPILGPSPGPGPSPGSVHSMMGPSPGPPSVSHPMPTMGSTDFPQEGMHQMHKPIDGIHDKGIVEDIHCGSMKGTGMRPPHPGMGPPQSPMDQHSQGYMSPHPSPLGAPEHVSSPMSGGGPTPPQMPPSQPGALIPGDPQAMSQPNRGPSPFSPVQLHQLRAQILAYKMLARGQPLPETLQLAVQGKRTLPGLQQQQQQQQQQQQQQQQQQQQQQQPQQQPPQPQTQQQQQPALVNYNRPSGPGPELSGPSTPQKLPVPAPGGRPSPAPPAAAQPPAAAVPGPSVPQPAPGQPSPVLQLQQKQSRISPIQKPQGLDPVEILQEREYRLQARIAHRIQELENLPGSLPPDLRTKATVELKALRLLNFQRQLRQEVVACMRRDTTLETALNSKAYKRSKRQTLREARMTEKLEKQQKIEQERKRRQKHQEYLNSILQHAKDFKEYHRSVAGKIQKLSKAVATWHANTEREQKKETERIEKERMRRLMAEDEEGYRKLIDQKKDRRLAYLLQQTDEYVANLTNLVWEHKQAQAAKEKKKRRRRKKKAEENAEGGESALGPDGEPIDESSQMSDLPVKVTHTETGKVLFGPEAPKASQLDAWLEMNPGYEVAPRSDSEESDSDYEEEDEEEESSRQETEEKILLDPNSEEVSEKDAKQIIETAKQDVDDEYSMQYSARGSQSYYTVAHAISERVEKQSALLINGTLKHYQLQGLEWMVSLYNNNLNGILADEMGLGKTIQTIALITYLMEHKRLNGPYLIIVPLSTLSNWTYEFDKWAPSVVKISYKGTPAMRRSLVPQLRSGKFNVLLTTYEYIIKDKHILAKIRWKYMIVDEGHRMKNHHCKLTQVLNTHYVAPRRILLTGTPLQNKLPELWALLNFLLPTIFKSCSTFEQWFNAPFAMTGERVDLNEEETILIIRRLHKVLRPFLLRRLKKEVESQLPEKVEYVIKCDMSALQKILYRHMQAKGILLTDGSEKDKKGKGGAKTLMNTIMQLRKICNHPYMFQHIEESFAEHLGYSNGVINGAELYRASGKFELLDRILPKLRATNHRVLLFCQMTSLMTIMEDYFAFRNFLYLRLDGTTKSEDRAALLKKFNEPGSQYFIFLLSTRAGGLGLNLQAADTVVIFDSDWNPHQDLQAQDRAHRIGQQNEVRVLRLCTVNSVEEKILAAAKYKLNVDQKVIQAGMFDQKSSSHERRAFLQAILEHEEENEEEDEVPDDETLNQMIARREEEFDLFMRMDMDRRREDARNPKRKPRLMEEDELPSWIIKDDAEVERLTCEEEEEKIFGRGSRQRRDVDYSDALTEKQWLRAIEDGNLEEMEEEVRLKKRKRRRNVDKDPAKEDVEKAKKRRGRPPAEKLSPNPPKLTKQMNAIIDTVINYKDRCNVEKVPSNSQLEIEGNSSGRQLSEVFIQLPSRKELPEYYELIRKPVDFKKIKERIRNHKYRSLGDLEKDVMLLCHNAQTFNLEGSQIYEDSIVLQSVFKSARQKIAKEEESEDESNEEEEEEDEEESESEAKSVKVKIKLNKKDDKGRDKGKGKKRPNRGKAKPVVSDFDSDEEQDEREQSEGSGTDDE
T2 sequence (P51532 whole entry, the tested form may be a part): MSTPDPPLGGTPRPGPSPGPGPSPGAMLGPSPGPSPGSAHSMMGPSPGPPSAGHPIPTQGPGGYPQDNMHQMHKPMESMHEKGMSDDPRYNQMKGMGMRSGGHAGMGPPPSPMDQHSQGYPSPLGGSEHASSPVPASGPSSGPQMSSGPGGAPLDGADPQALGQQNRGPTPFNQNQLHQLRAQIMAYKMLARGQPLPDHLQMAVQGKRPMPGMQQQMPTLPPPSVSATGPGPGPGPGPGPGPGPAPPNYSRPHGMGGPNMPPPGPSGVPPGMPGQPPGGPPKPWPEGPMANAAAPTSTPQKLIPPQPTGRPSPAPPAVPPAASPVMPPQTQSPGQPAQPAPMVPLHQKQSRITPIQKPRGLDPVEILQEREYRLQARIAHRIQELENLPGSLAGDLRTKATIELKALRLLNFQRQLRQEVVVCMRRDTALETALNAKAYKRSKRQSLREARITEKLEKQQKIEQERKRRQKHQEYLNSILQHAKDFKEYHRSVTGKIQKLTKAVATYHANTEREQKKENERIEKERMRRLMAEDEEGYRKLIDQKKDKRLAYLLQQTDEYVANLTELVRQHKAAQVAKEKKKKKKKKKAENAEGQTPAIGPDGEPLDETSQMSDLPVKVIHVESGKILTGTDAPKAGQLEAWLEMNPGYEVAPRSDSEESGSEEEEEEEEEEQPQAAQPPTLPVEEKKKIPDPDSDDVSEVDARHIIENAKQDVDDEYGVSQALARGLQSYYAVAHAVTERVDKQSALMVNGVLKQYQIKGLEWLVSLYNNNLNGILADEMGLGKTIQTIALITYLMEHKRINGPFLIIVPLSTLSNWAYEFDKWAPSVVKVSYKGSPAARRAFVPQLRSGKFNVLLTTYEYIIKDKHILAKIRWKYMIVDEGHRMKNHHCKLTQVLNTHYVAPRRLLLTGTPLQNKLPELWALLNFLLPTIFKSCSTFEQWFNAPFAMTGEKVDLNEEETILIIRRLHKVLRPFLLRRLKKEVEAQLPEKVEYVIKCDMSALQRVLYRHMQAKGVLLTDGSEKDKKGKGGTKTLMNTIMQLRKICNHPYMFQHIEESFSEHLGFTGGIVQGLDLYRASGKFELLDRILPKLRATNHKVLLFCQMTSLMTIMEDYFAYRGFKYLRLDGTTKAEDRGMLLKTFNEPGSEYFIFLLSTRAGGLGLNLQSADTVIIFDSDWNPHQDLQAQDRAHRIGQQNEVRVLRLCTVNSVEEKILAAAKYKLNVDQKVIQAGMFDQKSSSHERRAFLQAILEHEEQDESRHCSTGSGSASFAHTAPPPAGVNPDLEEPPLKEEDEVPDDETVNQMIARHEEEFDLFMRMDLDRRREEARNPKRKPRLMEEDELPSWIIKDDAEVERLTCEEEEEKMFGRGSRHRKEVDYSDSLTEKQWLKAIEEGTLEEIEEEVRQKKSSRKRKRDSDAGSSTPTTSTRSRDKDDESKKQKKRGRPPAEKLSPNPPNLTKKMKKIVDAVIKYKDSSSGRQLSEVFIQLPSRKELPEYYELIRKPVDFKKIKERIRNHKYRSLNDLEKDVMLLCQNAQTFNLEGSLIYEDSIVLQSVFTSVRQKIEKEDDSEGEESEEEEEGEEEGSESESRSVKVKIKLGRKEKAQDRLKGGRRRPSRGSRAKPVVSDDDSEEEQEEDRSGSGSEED

Compound | DC50 (HiBit-BRM fusion protein) [µM] | BRM HiBit Degradation Maximum measured (HiBit-BRM fusion protein) | DC50 [1] [µM] | Dmax [1] [%]
Cc1ncsc1-c1ccc(CNC(=O)C2CC(O)CN2C(=O)C(NC(=O)CCCCCCCNC(=O)c2ccc(COCC(NC(=O)c3ccn(S(C)(=O)=O)c3)C(=O)Nc3nc(-c4ccccc4)cs3)cc2)C(C)(C)C)cc1 (centres unmarked) [Compound 174] | 0.1 to 1 | B (‘B’ = Maximum degradation ≥50% and ≤75%) | 0.1 to 1 | 50 to 75
CS(=O)(=O)n1ccc(C(=O)N[C@@H](COCc2ccc(CNC(=O)CCN3CC4(C3)CN(c3ccc5c(c3)C(=O)N(C3CCC(=O)NC3=O)C5=O)C4)cc2)C(=O)Nc2nc(-c3ccccc3)cs2)c1 (stereo partly drawn) [Compound 176, (2S)-3-([4-[(3-[6-[2-(2,6-dioxopiperidin-3-yl)-1,3-dioxoisoindol-5-yl]-2,6-diazaspiro[3.3]heptan-2-yl]propanamido)methyl]phenyl]methoxy)-2-[(1-methanesulfonylpyrrol-3-yl)formamido]-N-(4-phenyl-1,3-thiazol-2-yl)propanamide] | 0.1 to 1 | B (‘B’ = Maximum degradation ≥50% and ≤75%) | 0.1 to 1 | 50 to 75
Cc1ncsc1-c1ccc(CNC(=O)[C@@H]2C[C@@H](O)CN2C(=O)[C@@H](NC(=O)CCCCCCCCC(=O)NCc2ccc(COC[C@H](NC(=O)c3ccn(S(C)(=O)=O)c3)C(=O)Nc3nc(-c4ccccc4)cs3)cc2)C(C)(C)C)cc1 [Compound 177, N-[(2S)-1-[(2S,4R)-4-hydroxy-2-([[4-(4-methyl-1,3-thiazol-5-yl)phenyl]methyl]carbamoyl)pyrrolidin-1-yl]-3,3-dimethyl-1-oxobutan-2-yl]-N′-[(4-[[(2S)-2-[(1-methanesulfonylpyrrol-3-yl)formamido]-2-[(4-phenyl-1,3-thiazol-2-yl)carbamoyl]ethoxy]methyl]phenyl)methyl]decanediamide] | > 10 | C (‘C’ = Maximum degradation <50%) | 0.1 to 1 | 50 to 75
CS(=O)(=O)n1ccc(C(=O)N[C@@H](COCc2ccc(CNC(=O)CCCOc3cccc4c3C(=O)N(C3CCC(=O)NC3=O)C4=O)cc2)C(=O)Nc2nc(-c3ccccc3)cs2)c1 (stereo partly drawn) [Compound 178, 4-[[2-(2,6-dioxopiperidin-3-yl)-1,3-dioxoisoindol-4-yl]oxy]-N-[(4-[[(2S)-2-[(1-methanesulfonylpyrrol-3-yl)formamido]-2-[(4-phenyl-1,3-thiazol-2-yl)carbamoyl]ethoxy]methyl]phenyl)methyl]butanamide] | > 10 | C (‘C’ = Maximum degradation <50%) | > 10 | < 50
CS(=O)(=O)n1ccc(C(=O)N[C@@H](COCc2ccc(CNC(=O)CCCCCCOc3cccc4c3C(=O)N(C3CCC(=O)NC3=O)C4=O)cc2)C(=O)Nc2nc(-c3ccccc3)cs2)c1 (stereo partly drawn) [Compound 179, 7-[[2-(2,6-dioxopiperidin-3-yl)-1,3-dioxoisoindol-4-yl]oxy]-N-[(4-[[(2S)-2-[(1-methanesulfonylpyrrol-3-yl)formamido]-2-[(4-phenyl-1,3-thiazol-2-yl)carbamoyl]ethoxy]methyl]phenyl)methyl]heptanamide] | > 10 | C (‘C’ = Maximum degradation <50%) | > 10 | < 50
CS(=O)(=O)n1ccc(C(=O)N[C@@H](COCc2ccc(CNC(=O)CCCCCCCCCCNc3cccc4c3C(=O)N(C3CCC(=O)NC3=O)C4=O)cc2)C(=O)Nc2nc(-c3ccccc3)cs2)c1 (stereo partly drawn) [Compound 180, 11-[[2-(2,6-dioxopiperidin-3-yl)-1,3-dioxoisoindol-4-yl]amino]-N-[(4-[[(2S)-2-[(1-methanesulfonylpyrrol-3-yl)formamido]-2-[(4-phenyl-1,3-thiazol-2-yl)carbamoyl]ethoxy]methyl]phenyl)methyl]undecanamide] | 0.1 to 1 | B (‘B’ = Maximum degradation ≥50% and ≤75%) | 0.1 to 1 | 50 to 75
CS(=O)(=O)n1ccc(C(=O)N[C@@H](COCc2ccc(CNC(=O)CCOCCOCCNc3cccc4c3C(=O)N(C3CCC(=O)NC3=O)C4=O)cc2)C(=O)Nc2nc(-c3ccccc3)cs2)c1 (some centres unmarked) [Compound 181] | 0.1 to 1 | B (‘B’ = Maximum degradation ≥50% and ≤75%) | 0.1 to 1 | 50 to 75
CS(=O)(=O)n1ccc(C(=O)N[C@@H](COCc2ccc(CNC(=O)CCOCCOCCOc3cccc4c3C(=O)N(C3CCC(=O)NC3=O)C4=O)cc2)C(=O)Nc2nc(-c3ccccc3)cs2)c1 (stereo partly drawn) [Compound 182, 3-[2-(2-[[2-(2,6-dioxopiperidin-3-yl)-1,3-dioxoisoindol-4-yl]oxy]ethoxy)ethoxy]-N-[(4-[[(2S)-2-[(1-methanesulfonylpyrrol-3-yl)formamido]-2-[(4-phenyl-1,3-thiazol-2-yl)carbamoyl]ethoxy]methyl]phenyl)methyl]propanamide] | > 10 | C (‘C’ = Maximum degradation <50%) | > 10 | < 50
CS(=O)(=O)n1ccc(C(=O)N[C@@H](CCOCCCC(=O)N2CCN(CC3CN(c4ccc5c(c4)C(=O)N(C4CCC(=O)NC4=O)C5=O)C3)CC2)C(=O)Nc2nc(-c3ccccc3)cs2)c1 (stereo partly drawn) [Compound 183, (2S)-4-[4-[4-([1-[2-(2,6-dioxopiperidin-3-yl)-1,3-dioxoisoindol-5-yl]azetidin-3-yl]methyl)piperazin-1-yl]-4-oxobutoxy]-2-[(1-methanesulfonylpyrrol-3-yl)formamido]-N-(4-phenyl-1,3-thiazol-2-yl)butanamide; formic acid] | > 10 | C (‘C’ = Maximum degradation <50%) | > 10 | < 50
COC(=O)N1CCCC(c2csc(NC(=O)[C@H](CCCCNC(=O)CCCCCCCCCCNc3cccc4c3C(=O)N(C3CCC(=O)NC3=O)C4=O)NC(=O)c3ccn(C(C)(C)C)c3)n2)C1 (stereo partly drawn) [Compound 184, methyl 3-[2-[(2S)-2-[(1-tert-butylpyrrol-3-yl)formamido]-6-(11-[[2-(2,6-dioxopiperidin-3-yl)-1,3-dioxoisoindol-4-yl]amino]undecanamido)hexanamido]-1,3-thiazol-4-yl]piperidine-1-carboxylate] | > 10 | C (‘C’ = Maximum degradation <50%) | > 10 | < 50
CS(=O)(=O)n1ccc(C(=O)N[C@@H](COCCCC(=O)NCCNc2ccc3c(c2)C(=O)N(C2CCC(=O)NC2=O)C3=O)C(=O)Nc2nc(-c3ccccc3)cs2)c1 (stereo partly drawn) [Compound 185, N-((2S)-3-(4-((2-((2-(2,6-dioxopiperidin-3-yl)-1,3-dioxoisoindolin-5-yl)amino)ethyl)amino)-4-oxobutoxy)-1-oxo-1-((4-phenylthiazol-2-yl)amino)propan-2-yl)-1-(methylsulfonyl)-1H-pyrrole-3-carboxamide] | > 10 | C (‘C’ = Maximum degradation <50%) | > 10 | < 50

Results, then the molecule that gave them:

DC50 (HiBit-BRM fusion protein) [µM] | BRM HiBit Degradation Maximum measured (HiBit-BRM fusion protein) | DC50 [1] [µM] | Dmax [1] [%] | Compound
0.1 to 1 | A (‘A’ = Maximum degradation >75%) | 0.1 to 1 | > 75 | CC(C)(C)n1ccc(C(=O)N[C@@H](COCc2ccc(C(=O)NC3CCN(CCOc4ccc5c(c4)C(=O)N(C4CCC(=O)NC4=O)C5=O)CC3)cc2)C(=O)Nc2nc(-c3ccccc3)cs2)c1 (stereo partly drawn) [Compound 170, 4-[[(2S)-2-[(1-tert-butylpyrrol-3-yl)formamido]-2-[(4-phenyl-1,3-thiazol-2-yl)carbamoyl]ethoxy]methyl]-N-[1-(2-[[2-(2,6-dioxopiperidin-3-yl)-1,3-dioxoisoindol-5-yl]oxy]ethyl)piperidin-4-yl]benzamide]
< 0.1 | – | < 0.1 | – | CC(C)(C)n1ccc(C(=O)N[C@@H](COCc2ccc(C(=O)NCCOC3CN(c4ccc5c(c4)C(=O)N(C4CCC(=O)NC4=O)C5=O)C3)cc2)C(=O)Nc2nc(-c3ccccc3)cs2)c1 (some centres unmarked) [Compound 171]
> 10 | C (‘C’ = Maximum degradation <50%) | > 10 | < 50 | CS(=O)(=O)n1ccc(C(=O)N[C@@H](COCCCC(=O)NCCCCS(=O)(=O)CCCNc2cccc3c2C(=O)N(C2CCC(=O)NC2=O)C3=O)C(=O)Nc2nc(-c3ccccc3)cs2)c1 (some centres unmarked) [Compound 172]
> 10 | C (‘C’ = Maximum degradation <50%) | > 10 | < 50 | Cc1ncsc1-c1ccc(CNC(=O)[C@@H]2C[C@@H](O)CN2C(=O)[C@@H](NC(=O)COCCOCCNC(=O)CCCOC[C@H](NC(=O)c2ccn(S(C)(=O)=O)c2)C(=O)Nc2nc(-c3ccccc3)cs2)C(C)(C)C)cc1 [Compound 173, (2S,4R)-4-hydroxy-1-[(2S)-2-[2-[2-(2-[4-[(2S)-2-[(1-methanesulfonylpyrrol-3-yl)formamido]-2-[(4-phenyl-1,3-thiazol-2-yl)carbamoyl]ethoxy]butanamido]ethoxy)ethoxy]acetamido]-3,3-dimethylbutanoyl]-N-[[4-(4-methyl-1,3-thiazol-5-yl)phenyl]methyl]pyrrolidine-2-carboxamide]
> 10 | C (‘C’ = Maximum degradation <50%) | > 10 | < 50 | CN(CCNC(=O)COc1cccc2c1C(=O)N(C1CCC(=O)NC1=O)C2=O)CCNC(=O)c1ccc(COC[C@H](NC(=O)c2ccn(S(C)(=O)=O)c2)C(=O)Nc2nc(-c3ccccc3)cs2)cc1 (some centres unmarked) [Compound 175]
